Data on 18 compounds can be found in PubChem BioAssay (NCI).

Usually TGI stands for the concentration giving total growth inhibition. Read a low TGI as more potent growth arrest.

SMILES strings stand for the structures.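 A five-concentration, 48-hour dose response in 96-well plates underlies each endpoint, interpolated linearly between surrounding concentrations. At the TGI there is no net growth.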

Holding throughout (test): DTP human tumour cell line panel, 48 h
Test [1] has as its system 786-0 renal.
The subject of test [2] is ACHN renal.
Test [3] has as its system HOP-92 NSCLC.
Test [4] has as its system K-562 leukemia.
Test [5] deals with KM12 colon.
For test [6], the system named is MALME-3M melanoma.
Test [7] relates to MDA-N.
Test [8] deals with OVCAR-4 ovarian.
Test [9] deals with SK-MEL-2 melanoma.
The subject of test [10] is SK-MEL-28 melanoma.
Test [11] relates to SN12C renal.

Turning to `O=C(Nc1c(Cl)cc([N+](=O)[O-])cc1Cl)C(=O)C1C(=O)NC(=S)NC1=O`, the TGI in test [1], in [2], in test [3], in [4], in test [5] and in test [6] was > 100 µM in each case. The TGI in test [7], in test [8], in [9], in test [10] and in [11] was > 100 µM throughout.
`O=C(CN1CCCCC1)c1ccc2c(c1)Sc1ccccc1O2`: the TGI was 33.2 µM in test [1]; 27.7 µM in test [2]; 28 µM in test [3]; > 100 µM in [4]; 30.1 µM in test [5]; 33.4 µM in [6]. For the same compound, the TGI in test [7] came out at 34.5 µM; in [8], 27.5 µM; in test [9] it was 32.8 µM; in [10], 37.8 µM; in [11] it was 42.7 µM.
As for `COc1ccc(C(=C(I)c2ccccc2)c2ccc(OC)cc2)cc1`, the concentration for total growth inhibition (TGI) in [1], in [2], in test [3], in test [4], in test [5] and in test [6] was > 100 µM throughout. Besides, the TGI in test [7], in test [8], in test [9], in test [10] and in [11] was > 100 µM each time.
Turning to `Cc1ccc(S(=O)(=O)NC(=O)NCCC(=O)O)cc1`, the TGI in test [1], in test [2], in [3], in [4], in [5] and in [6] was > 100 µM throughout. Moreover, the TGI in [7], in test [8], in test [9], in test [10] and in test [11] was > 100 µM in each case.
Regarding `Cn1c(-c2ccc[se]2)ccc1-c1ccc(CO)[se]1`, the TGI in [1] is > 100 µM; in test [2] it was > 71.5 µM; in test [3], 43.2 µM; in test [4], > 100 µM; in [5] it was > 100 µM; in [6] it was 40.4 µM. Further, the TGI was > 60.5 µM in test [7]; > 100 µM in [8]; > 100 µM in test [9]; > 100 µM in test [10]; > 100 µM in test [11].
For `C=C1C(=O)O[C@H]2C/C(C)=C/CC/C(C)=C/CC[C@@](C)(O)[C@@H](I)C[C@@H]12`, the TGI in [1] turned out to be 10.6 µM; in test [2], 21.5 µM; in [3], 9.82 µM; in test [4], 13.5 µM; in test [5] it was 18.5 µM; in test [6], 22.3 µM. In addition, the TGI in test [7] was determined as 13.3 µM; in [8] it was 15.4 µM; in test [9] it was 25.8 µM; in test [10] it was 30 µM; in test [11], 18.1 µM.
For the compound `CN1C/C(=C\c2ccc(Cl)cc2)C(=O)/C(=C/c2ccc(Cl)cc2)C1`, the TGI was 1.26 µM in test [1]; > 25.3 µM in test [2]; > 100 µM in test [3]; > 100 µM in test [4]; 2.39 µM in test [5]; > 100 µM in [6]. Besides, the TGI in [7] is 8.86 µM; in test [8], > 65.9 µM; in test [9], > 100 µM; in test [10], > 100 µM; in test [11] it was > 100 µM.
`C=CCN(c1cc(OCc2ccccc2)c(NC(C)=O)cc1[N+](=O)[O-])S(C)(=O)=O`: the TGI is 49.2 µM in [1]; > 100 µM in test [2]; 41.2 µM in [3]; > 100 µM in test [4]; > 100 µM in test [5]; 73.2 µM in test [6]. In addition, the TGI is > 100 µM in test [7]; > 100 µM in test [8]; 73.1 µM in [9]; > 100 µM in [10]; > 100 µM in test [11].
As to `COc1ccc(/C=C(\C(=C/c2ccc(OC)cc2)[N+](=O)[O-])[N+](=O)[O-])cc1`, the TGI in test [1] was 4.96 µM; in [2], 17.1 µM; in test [3], 10 µM; in [4], > 34.5 µM; in test [5] it was 36.2 µM; in test [6], 11.9 µM. Also, the TGI in test [7] was found to be 8.89 µM; in test [8], 27.1 µM; in test [9] it was 39.7 µM; in test [10], 6.76 µM; in test [11], 10.1 µM.
For the compound `NS(=O)(=O)c1ccc(Nc2c3ccccc3nc3c(C(=O)NCCCN(CCO)CCO)cccc23)cc1`, the concentration for total growth inhibition (TGI) in test [1] was 45.2 µM; in test [2], > 100 µM; in test [3], > 100 µM; in [4] it was > 100 µM; in [5] it was 38.5 µM; in [6] it was 42 µM. Moreover, the TGI in test [7] is 41.9 µM; in test [8] it was > 100 µM; in test [9], 58.9 µM; in test [10], 41.9 µM; in [11] it was 46.5 µM.
`O=C(OCCN1CCCCC1)C(c1ccccc1)C1(O)CCSCC1` (stereo not drawn): the TGI in [1], in test [2], in [3], in test [4], in [5] and in test [6] was > 100 µM each time. In addition, the TGI in test [7], in [8], in test [9], in test [10] and in test [11] was > 100 µM throughout.
On to `COc1ccc2c(c1)nc1n2C(N)=Nc2ccccc2S1`, for which the TGI in [1] is > 34.1 µM; in [2], > 100 µM; in test [3], 63.5 µM; in [4] it was > 57.8 µM; in test [5] it was 34.2 µM; in test [6], > 100 µM. In addition, the TGI in [7], in test [8], in [9], in test [10] and in test [11] was > 100 µM throughout.
On to `C=CC(C)(C)N[C@@H](C(=O)N1CCC[C@H]1c1nc(-c2nc(C(=O)OCC=C(C)C)c(C)o2)c(C)o1)C(C)C`, for which the TGI in [1] is 44.5 µM; in test [2], 88.3 µM; in test [3] it was 35 µM; in test [4], > 100 µM; in test [5], 60.3 µM; in test [6], 39 µM. Moreover, the TGI in test [7] was found to be 38.4 µM; in [8] it was 71.4 µM; in test [9] it was 73.5 µM; in test [10] it was 38.2 µM; in test [11], 39.2 µM.
As for `CCOC(=O)C(NC(=O)CC(C)C)(Nc1ccc(C(F)(F)F)cc1)C(F)(F)F` (stereo not drawn), the TGI is > 100 µM in [1]; 91 µM in test [2]; > 100 µM in [3]; > 100 µM in [4]; 55.6 µM in [5]; > 100 µM in test [6]. Also, the TGI in test [7], in test [8], in test [9], in test [10] and in test [11] was > 100 µM in each case.
Take `Nc1ccc(-c2nc3cc(F)ccc3s2)cc1I`: the TGI was 32 µM in test [1]; 24.6 µM in [2]; 39.3 µM in test [3]; > 100 µM in test [4]; > 100 µM in test [5]; 72.9 µM in [6]. The TGI in [7] is > 100 µM; in [8] it was > 100 µM; in [9] it was 50.6 µM; in test [10], > 100 µM; in test [11], > 69.8 µM.
Take `O=C(/C=C/c1ccc(-c2ccccc2)cc1)NCc1ccc(C(=O)NCCc2c[nH]c3ccccc23)cc1`: the TGI in test [1] is 26.7 µM; in test [2] it was > 100 µM; in [3] it was > 100 µM; in test [4], 45.6 µM; in test [5], > 100 µM; in [6], > 100 µM. The TGI in test [7] was > 100 µM; in [8], 72.1 µM; in test [9], > 100 µM; in test [10], > 100 µM; in test [11], 23.8 µM.
`CC(C)(C)n1c(=O)n(C(=O)C(Cl)(Cl)Cl)n(C(=O)C(Cl)(Cl)Cl)c1=O`: the TGI in test [1], in test [2], in [3], in [4], in test [5] and in [6] was > 100 µM throughout. Further, the TGI in test [7], in [8], in test [9], in test [10] and in test [11] was > 100 µM in each case.
For `CC(NC1=NCCO1)c1cccc([N+](=O)[O-])c1` (stereo not drawn), the TGI in test [1], in test [2], in [3], in test [4], in [5] and in test [6] was > 100 µM in each case. The TGI in [7], in [8], in test [9], in test [10] and in [11] was > 100 µM each time.
